# From the CheMixHub viscosity set
# ± gives the uncertainty stated by the source.
# Assay: xn = mol fraction of the nth substance listed
# Conditions: 101 kPa
smiles,measurement,setting,value
CCCC[N+](CCCC)(CCCC)CCCC.O=[N+]([O-])[O-] + O,viscosity,"298.15 K, x1 = 0.000175",0.9058 ± 0.024 mPa·s
same,viscosity,"298.15 K, x1 = 0.0007208",0.9399 ± 0.025 mPa·s
same,viscosity,"298.15 K, x1 = 0.0009037",0.9512 ± 0.025 mPa·s
same,viscosity,"298.15 K, x1 = 0.001282",0.9739 ± 0.026 mPa·s
same,viscosity,"298.15 K, x1 = 0.001513",0.9877 ± 0.026 mPa·s
same,viscosity,"298.15 K, x1 = 0.002132",1.024 ± 0.027 mPa·s
same,viscosity,"298.15 K, x1 = 0.00641",1.328 ± 0.035 mPa·s
same,viscosity,"298.15 K, x1 = 0.006556",1.335 ± 0.036 mPa·s
same,viscosity,"298.15 K, x1 = 0.009813",1.592 ± 0.043 mPa·s
same,viscosity,"298.15 K, x1 = 0.0134",1.907 ± 0.051 mPa·s
same,viscosity,"298.15 K, x1 = 0.0182",2.346 ± 0.063 mPa·s
same,viscosity,"298.15 K, x1 = 0.01938",2.474 ± 0.067 mPa·s
same,viscosity,"298.15 K, x1 = 0.02698",3.292 ± 0.09 mPa·s
same,viscosity,"298.15 K, x1 = 0.03856",4.744 ± 0.13 mPa·s
same,viscosity,"298.15 K, x1 = 0.06582",8.699 ± 0.24 mPa·s
same,viscosity,"298.15 K, x1 = 0.08624",12.21 ± 0.34 mPa·s
same,viscosity,"298.15 K, x1 = 0.1165",18.05 ± 0.51 mPa·s
same,viscosity,"308.15 K, x1 = 0.000175",0.7311 ± 0.019 mPa·s
same,viscosity,"308.15 K, x1 = 0.0007208",0.7555 ± 0.02 mPa·s
same,viscosity,"308.15 K, x1 = 0.0009037",0.7635 ± 0.02 mPa·s
same,viscosity,"308.15 K, x1 = 0.001282",0.7798 ± 0.021 mPa·s
same,viscosity,"308.15 K, x1 = 0.001513",0.7898 ± 0.021 mPa·s
same,viscosity,"308.15 K, x1 = 0.002132",0.8156 ± 0.022 mPa·s
same,viscosity,"308.15 K, x1 = 0.00641",1.024 ± 0.027 mPa·s
same,viscosity,"308.15 K, x1 = 0.006556",1.035 ± 0.028 mPa·s
same,viscosity,"308.15 K, x1 = 0.009813",1.21 ± 0.032 mPa·s
same,viscosity,"308.15 K, x1 = 0.0134",1.431 ± 0.038 mPa·s
same,viscosity,"308.15 K, x1 = 0.0182",1.735 ± 0.046 mPa·s
same,viscosity,"308.15 K, x1 = 0.01938",1.813 ± 0.048 mPa·s
same,viscosity,"308.15 K, x1 = 0.02698",2.346 ± 0.063 mPa·s
same,viscosity,"308.15 K, x1 = 0.03856",3.175 ± 0.086 mPa·s
same,viscosity,"308.15 K, x1 = 0.06582",5.748 ± 0.16 mPa·s
same,viscosity,"308.15 K, x1 = 0.08624",7.98 ± 0.22 mPa·s
same,viscosity,"308.15 K, x1 = 0.1165",11.05 ± 0.3 mPa·s
same,viscosity,"318.15 K, x1 = 0.000175",0.6051 ± 0.016 mPa·s
same,viscosity,"318.15 K, x1 = 0.0007208",0.6231 ± 0.017 mPa·s
same,viscosity,"318.15 K, x1 = 0.0009037",0.629 ± 0.017 mPa·s
same,viscosity,"318.15 K, x1 = 0.001282",0.6411 ± 0.017 mPa·s
same,viscosity,"318.15 K, x1 = 0.001513",0.6484 ± 0.017 mPa·s
same,viscosity,"318.15 K, x1 = 0.002132",0.6675 ± 0.018 mPa·s
same,viscosity,"318.15 K, x1 = 0.00641",0.8259 ± 0.022 mPa·s
same,viscosity,"318.15 K, x1 = 0.006556",0.8318 ± 0.022 mPa·s
same,viscosity,"318.15 K, x1 = 0.009813",0.9594 ± 0.025 mPa·s
same,viscosity,"318.15 K, x1 = 0.0134",1.107 ± 0.029 mPa·s
same,viscosity,"318.15 K, x1 = 0.0182",1.333 ± 0.036 mPa·s
same,viscosity,"318.15 K, x1 = 0.01938",1.399 ± 0.037 mPa·s
same,viscosity,"318.15 K, x1 = 0.02698",1.808 ± 0.048 mPa·s
same,viscosity,"318.15 K, x1 = 0.03856",2.424 ± 0.065 mPa·s
same,viscosity,"318.15 K, x1 = 0.06582",4.183 ± 0.11 mPa·s
same,viscosity,"318.15 K, x1 = 0.08624",5.611 ± 0.15 mPa·s
same,viscosity,"318.15 K, x1 = 0.1165",7.815 ± 0.21 mPa·s
same,viscosity,"323.15 K, x1 = 0.000175",0.5548 ± 0.015 mPa·s
same,viscosity,"323.15 K, x1 = 0.0007208",0.5704 ± 0.015 mPa·s
same,viscosity,"323.15 K, x1 = 0.0009037",0.5756 ± 0.015 mPa·s
same,viscosity,"323.15 K, x1 = 0.001282",0.586 ± 0.015 mPa·s
same,viscosity,"323.15 K, x1 = 0.001513",0.5923 ± 0.016 mPa·s
same,viscosity,"323.15 K, x1 = 0.002132",0.609 ± 0.016 mPa·s
same,viscosity,"323.15 K, x1 = 0.00641",0.747 ± 0.02 mPa·s
same,viscosity,"323.15 K, x1 = 0.006556",0.7536 ± 0.02 mPa·s
same,viscosity,"323.15 K, x1 = 0.009813",0.8647 ± 0.023 mPa·s
same,viscosity,"323.15 K, x1 = 0.0134",1.002 ± 0.027 mPa·s
same,viscosity,"323.15 K, x1 = 0.0182",1.182 ± 0.031 mPa·s
same,viscosity,"323.15 K, x1 = 0.01938",1.241 ± 0.033 mPa·s
same,viscosity,"323.15 K, x1 = 0.02698",1.573 ± 0.042 mPa·s
same,viscosity,"323.15 K, x1 = 0.03856",2.123 ± 0.056 mPa·s
same,viscosity,"323.15 K, x1 = 0.06582",3.578 ± 0.096 mPa·s
same,viscosity,"323.15 K, x1 = 0.08624",4.732 ± 0.13 mPa·s
same,viscosity,"323.15 K, x1 = 0.1165",6.642 ± 0.18 mPa·s
